{"source": "patent US7528175B2", "about": "“Method of treating airway diseases with beta-adrenergic inverse agonists” (Inverseon, Inc., priority 2005, dated 2009)", "key": {"[1]": {"system": "asthmatic mice", "assay": "Airway resistance (Raw) response to methacholine in murine model of asthma (forced oscillation)", "type": "in vivo, Balb/cJ mice", "procedure": "Balb/cJ mice aged 6 weeks (Jackson Animal Laboratory, Bar Harbor, Me.) were housed under specific pathogen-free conditions and fed a chicken ovalbumin-free diet. The Animal Research Ethics Boards of both the University of Houston and the Baylor College of Medicine approved all experiments reported here. […] Mice were sensitized with subcutaneous injection of 25 μg of ovalbumin adsorbed to aluminum hydroxide on protocol days 2, 9, and 16. Subsequently, mice were given 50 μL of saline solution containing 25 μg of ovalbumin intranasally, on a daily basis, from protocol days 23 through 27. A group of ovalbumin-sensitized saline-challenged mice serves as controls for systemic sensitization and respiratory challenges with ovalbumin. Prior to intranasal administrations, mice were sedated with halothane vapor.\nTo examine the effects of duration of β-adrenergic ligand therapy on the phenotype of the murine model of asthma, the experimental drugs were administered either acutely or chronically to different groups of asthmatic mice.\nAsthmatic mice on acute therapy were given a single intravenous bolus infusion of either β-adrenergic drug or normal saline on protocol day 28, 15 minutes before airway responsiveness to methacholine was determined. […] […] […] These concentrations were chosen based on those producing therapeutic effects in mice in previously published studies. The non-asthmatic mice were fed normal chow.\nOn protocol day 28, mice were anesthetized, tracheotomized, and connected to a computer-controlled small animal ventilator (Flexivent, Scientific Respiratory Equipment, Inc., Montreal, Canada). Airway resistance (Raw) was measured using the forced oscillation technique. The cellular composition of bronchoalveolar lavage fluid (BALF) was also determined.\nTo induce airway constriction, a solution containing 150 μg/mL of acetyl-α-methylcholine chloride (methacholine) (Sigma Chemical, St. Louis, Mo.) was infused intravenously at constant rates using a syringe infusion pump (Raze Scientific Instruments, Stanford, Conn.). […] Each methacholine dose was administered for 3 to 5 minutes, during which data were sampled at 1-minute intervals and then averaged.\nThe complex input impedance of the respiratory system was computed and the value of the real part of respiratory system impedance at 19.75 Hz was taken to reflect the magnitude of airway resistance (Raw). To examine the degree of airway responsiveness of each animal, the values for Raw as a function of methacholine doses were plotted. The largest value for Raw achieved in response to methacholine stimulation was referred to as Rawpeak. For mice that achieved a plateau in the methacholine dose-Raw response curve, the ED50 was calculated by linear interpolation using the GraphPad Prism4 (GraphPad Software, Inc.). […] The Bonferroni test was used to examine the statistical differences between experimental groups. The effects of acute drug treatments on baseline respiratory system mechanics were assessed using a two-tailed paired t-test. A value of P<0.05 was considered significant.\nFor these experiments, salbutamol was used for chronic administration at 0.5 mg/kg/day with a minipump and for acute administration at 0.15 mg/kg by i.v. bolus 15 minutes prior to challenge. Alprenolol was used at a high dose of 7200 ppm in chow or at a low dose of 720 ppm in chow. Carvedilol was used at a high dose of 2400 ppm in chow or at a low dose of 720 ppm in chow."}, "[2]": {"system": "interleukin 10 (IL-10)", "assay": "IL-10 levels in BALF", "type": "in vivo, mice", "procedure": "Bronchial alveolar lavage fluid was collected from treated animals and total immune cell number was determined and the total number of eosinophils was also determined. Additionally, the interleukin 10 (IL-10) levels were determined in the mice."}, "[3]": {"system": "adults with mild asthma", "conditions": "human, in vivo", "description": "(§1) Study Design: The study is an open-label Phase IIa, proof of principle, 11-week, dose escalation study in mild asthma. Up to twelve subjects with mild asthma, not taking inhaled corticosteroids or other controller medications are to be recruited from a single clinical research center. […] Combivent rescue medication was provided to subjects during the run-in period to replace their own rescue medication which typically is Albuterol (salbutamol a beta 2 partial agonist).\n(§2) The subjects are maintained at their maximum tolerated dose for a minimum of 4 weeks.\n(§3) All the following criteria had to be met for dose escalation otherwise the dose was kept at maintenance level (same dose), reduced to previous lower tolerated dose or the subject was terminated from the study.\n(§4) Data collected at baseline and during study visits include lung function (spirometry—FEV1 and daily peak flow rates —PEFR), asthma symptoms via dairy cards), heart rate and blood pressure. In addition, airway hyper-responsiveness (methacholine challenge test—PC20) and Asthma Control Questionaire (Juniper ACQ) will be performed. Blood is collected to monitor beta adrenergic receptor levels in lymphocytes and baseline laboratory evaluation."}, "[4]": {"system": "adults with mild asthma", "assay": "Phase IIa clinical trial of chronic oral nadolol, tolerability and cardiovascular function", "conditions": "for Heart rate at 4 hrs after administration of dose: subject 003, 80 mg", "description": "as §1, §2, §3, §4"}}, "note": "Several values for one entry are separate records, joined by “and”; a condition that tells them apart may be missing. Equal entries are not always repeated. Entries after “also recorded” stand apart in the source; their conditions may differ.", "data": [{"smiles": "CC(C)(C)NCC(O)COc1cccc2c1CC(O)C(O)C2", "note": "(centres unmarked) [nadolol]", "values": [{"measurement": "airway resistance (Raw)", "setting": "[1]; 1 ppm in chow", "value": "identical to the untreated mice"}, {"measurement": "Decreased Raw", "setting": "[1]; 15 minutes of administration", "value": "no"}, {"measurement": "Decreased Raw", "setting": "[1]; 2 days of administration", "value": "yes"}, {"measurement": "Decreased Raw", "setting": "[1]; 28 days of administration", "value": "yes"}, {"measurement": "airway function", "setting": "[1]; acute, parenteral administration, asthmatic mice", "value": "significant reduction in airway function"}, {"measurement": "airway responsiveness to methacholine provocation (Raw)", "setting": "[1]; asthmatic mice, acute: single intravenous bolus 15 minutes before methacholine", "value": "enhanced the airway responsiveness"}, {"measurement": "airway responsiveness to methacholine provocation (Raw)", "setting": "[1]; asthmatic mice, chronic administration for 28 days", "value": "produced a decrease in airway responsiveness, which was more pronounced than that caused by carvedilol treatment"}, {"measurement": "protection from airway hyperresponsiveness", "setting": "[1]; chronic administration, low and high doses in chow (FIGS. 8D-8G)", "value": "providing protection from airway hyperresponsiveness"}, {"measurement": "observed airway adverse effects", "setting": "[1]; orally in the animal chow at 250 ppm", "value": "noticeably wheezing and airway distress"}, {"measurement": "IL-10 levels in BALF", "setting": "[2]; acute treatment, P<0.01 vs S/C", "value": "a reduction was observed"}, {"measurement": "IL-10 levels in BALF", "setting": "[2]; chronic treatment, P<0.05 vs NS/NC, P<0.001 vs S/C", "value": "statistically significant increases"}, {"measurement": "serious adverse events due to study drug administration", "setting": "[3]", "value": "No serious adverse events"}, {"measurement": "tolerability of the first dose", "setting": "[3]", "value": "All subjects tolerated the first 10 mg dose"}, {"measurement": "Reason for Maximum Tolerated Dose: Blood Pressure", "setting": "[4]; per subject", "value": "110/68 mm Hg and 91/63 mm Hg"}, {"measurement": "Reason for Maximum Tolerated Dose: FEV1", "setting": "[4]; per subject", "value": "FEV1 78% predicted; also recorded: FEV1 at 68% predicted"}, {"measurement": "Reason for Maximum Tolerated Dose: Heart Rate", "setting": "[4]; per subject", "value": "Heart Rate 48 bpm"}, {"measurement": "Nadolol Max Tolerated Dose", "setting": "[4]; per subject (001-005), once daily oral", "value": "40 mg (2×) and 20 mg (2×) and 10 mg"}, {"measurement": "Heart Rate Visit 9", "setting": "[4]; per subject, on maximum tolerated dose", "value": "71 bpm and 70 bpm (2×) and 72 bpm and 53 bpm"}, {"measurement": "Heart rate at 4 hrs after administration of dose", "setting": "[4]; visit 5", "value": 42, "unit": "bpm"}, {"measurement": "Heart rate at 4 hrs after administration of dose", "setting": "[4]; visit 6", "value": 48, "unit": "bpm"}]}]}
